The text below walks through data of patent US20050197371A1, “Urea derivatives as PDGFR modulators” (Ambit Biosciences Corporation, priority 2003, published 2005).

A value given as a limit tells only on which side of the number the result lay.

In one experiment the target is T1, PDGFRB(DKIN) (PDGFR-β) (Homo sapiens, UniProt P09619).
T1 construct: PDGFRB(DKIN)
Description: Phage-display competitive binding assay, PDGFRB(DKIN). To be noted: T7 phage displaying human PDGFR-β, DKIN construct; read-out: Binding Assay: PDGFRB(DKIN). As to the method:
The term “ND” represents non-determined values.
(§1) Briefly, T7 phage displaying human PDGFR-β were incubated with an affinity matrix coated with known PDGFR-β inhibitor in the presence of various concentrations of the soluble competitor molecules.
For `COc1cc(C(=O)Nc2ccc(NC(=O)Nc3cc(C(C)(C)C)on3)cc2)nc(OC)n1` [Compound N162], the Kd is under 100 nM.

With `CCOC(=O)c1cccc(C(=O)Nc2ccc(NC(=O)Nc3cc(C(C)(C)C)on3)cc2)n1` [Compound N164], the Kd was under 100 nM.

As to `CC(C)(C)c1cc(NC(=O)Nc2ccc(NC(=O)c3cccnc3C(=O)O)cc2)no1` [Compound N165], the Kd was in the range of 100 to 1000 nM.

Take `CC(C)(C)c1cc(NC(=O)Nc2ccc(NC(=O)c3ccc(Oc4ccnc(C(=O)O)c4)cc3)cc2)no1` [Compound N166]: the Kd is under 100 nM.

Turning to `CC(C)(C)c1cc(NC(=O)Nc2ccc(NC(=O)c3ccncc3)cc2)no1` [Compound N167], the Kd was under 100 nM.

Take `Cc1cc(NC(=O)c2cn3nc(Cl)ccc3n2)ccc1NC(=O)Nc1cc(C(C)(C)C)on1` [Compound N169]: the Kd was 100 to 1000 nM.

In the case of `Cc1cc(NC(=O)[C@](C)(O)CSc2ccc(F)cc2)ccc1NC(=O)Nc1cc(C(C)(C)C)on1` [Compound N170], the Kd lay in the range of 100 to 1000 nM.

In the case of `COc1cc(NC(=O)c2cn3nc(Cl)ccc3n2)ccc1NC(=O)Nc1cc(C(C)(C)C)on1` [Compound N171], the Kd is 100 to 1000 nM.

Consider `COc1cc(NC(=O)CCC(=O)N2CCNC(=O)CC2)ccc1NC(=O)Nc1cc(C(C)(C)C)on1` [Compound N172], for which the Kd lay within 1000 to 10000 nM.

For `Cc1nc(-c2ccc(C(=O)Nc3ccc(NC(=O)Nc4cc(C(C)(C)C)on4)cc3)s2)cs1` [Compound N173], the Kd is under 100 nM.

Turning to `CC(C)(C)c1cc(NC(=O)Nc2ccc(NC(=O)c3cc(Cl)nnc3Cl)cc2)no1` [Compound N174], the Kd fell in the range of 100 to 1000 nM.

With `CC(C)(C)c1cc(NC(=O)Nc2ccc(NC(=O)c3cc(O)c4cccc(O)c4n3)cc2)no1` [Compound N176], the Kd lay in the range of 1000 to 10000 nM.

As to `COc1ccc(C(=O)c2c[nH]c(C(=O)Nc3ccc(NC(=O)Nc4cc(C(C)(C)C)on4)cc3)c2)cc1` [Compound N177], the Kd was in the range of 1000 to 10000 nM.

As to `Cc1ccc(-c2nc(C(=O)Nc3ccc(NC(=O)Nc4cc(C(C)(C)C)on4)cc3)cs2)cc1` [Compound N178], the Kd was under 100 nM.

Regarding `CC(C)(C)c1cc(NC(=O)Nc2ccc(NC(=O)c3nnsc3Sc3ccc(C(F)(F)F)cc3)cc2)no1` [Compound N179], the Kd was in the range of 100 to 1000 nM.

On to `CC(C)(C)c1cc(NC(=O)Nc2ccc(NC(=O)c3csc(Cc4cccc(C(F)(F)F)c4)n3)cc2)no1` [Compound N180], for which the Kd was 100 to 1000 nM.

As to `Cc1nc(-c2ccccc2)sc1C(=O)Nc1ccc(NC(=O)Nc2cc(C(C)(C)C)on2)cc1` [Compound N181], the Kd lay in the range of 100 to 1000 nM.

For `CC(C)c1nnsc1C(=O)Nc1ccc(NC(=O)Nc2cc(C(C)(C)C)on2)cc1` [Compound N182], the Kd lay within 1000 to 10000 nM.

Turning to `Cc1nc(-c2ccc(Cl)cc2)sc1C(=O)Nc1ccc(NC(=O)Nc2cc(C(C)(C)C)on2)cc1` [Compound N184], the Kd was in the range of 100 to 1000 nM.

Turning to `CC(C)(C)c1cc(NC(=O)Nc2ccc(NC(=O)c3ccccn3)cc2)no1` [Compound N188], the Kd was under 100 nM.

Regarding `COc1cc2nc(Cl)nc(Nc3ccc(NC(=O)Nc4cc(C(C)(C)C)on4)cc3)c2cc1OC` [Compound O1, 1-(4-(2-chloro-6,7-dimethoxyquinazolin-4-ylamino)phenyl)-3-(5-tert-butylisoxazol-3-yl)urea], the Kd lay in the range of 100 to 1000 nM.

With `Cc1cnc(C(=O)Nc2ccc(NC(=O)Nc3cc(C(C)(C)C)on3)cc2)cn1` [Compound O2], the Kd is under 100 nM.

On to `CC(C)(C)c1cc(NC(=O)Nc2ccc(Nc3ncnc4[nH]cnc34)cc2)no1` [Compound O3], for which the Kd was under 100 nM.

As to `CC(C)(C)c1cc(NC(=O)Nc2ccc(Nc3nc(Cl)nc4[nH]cnc34)cc2)no1` [Compound O4], the Kd was under 100 nM.

With `COc1cc2ncnc(Nc3ccc(NC(=O)Nc4cc(C(C)(C)C)on4)cc3)c2cc1OC` [Compound O5], the Kd was under 100 nM.

As to `CC(C)(C)c1cc(NC(=O)Nc2ccc(Nc3nc(N)nc4[nH]cnc34)cc2)no1` [Compound O6], the Kd was under 100 nM.

Regarding `CC(C)(C)c1cc(NC(=O)Nc2ccc(Nc3ccnc(N)n3)cc2)no1` [Compound O7], the Kd was 100 to 1000 nM.

As for `COC(=O)c1cccc(Sc2ncc(NC(=O)Nc3cc(C(C)(C)C)on3)s2)c1` [Compound O8], the Kd was in the range of 100 to 1000 nM.

In the case of `Cc1ccc(CNc2ccc(NC(=O)Nc3cc(C(C)(C)C)on3)cc2)cc1` [Compound O9], the Kd fell in the range of 100 to 1000 nM.

On to `Cc1nc(N)cc(Nc2ccc(NC(=O)Nc3cc(C(C)(C)C)on3)cc2)n1` [Compound O10], for which the Kd was 100 to 1000 nM.

With `COc1ccc(-c2noc(-c3ccc(NC(=O)Nc4cc(C(C)(C)C)on4)cc3)n2)c2ccccc12` [Compound P3], the Kd lay in the range of 1000 to 10000 nM.

As to `Cc1ccccc1-c1noc(-c2ccc(NC(=O)Nc3cc(C(C)(C)C)on3)cc2)n1` [Compound P4], the Kd is under 100 nM.

`CC(C)(C)c1cc(NC(=O)Nc2ccc(-c3nc(-c4cccc5ccccc45)no3)cc2)no1` [Compound P5]: the Kd lay in the range of 100 to 1000 nM.

For the compound `CC(C)(C)c1cc(NC(=O)Nc2ccc(-c3nc(-c4ccc(Cl)cc4)no3)cc2)no1` [Compound P7], the Kd lay within 100 to 1000 nM.

For `CC(C)(C)c1cc(NC(=O)Nc2ccc(-c3nc(-c4ccc(C(F)(F)F)cc4)no3)cc2)no1` [Compound P8], the Kd is over 10000 nM.

In the case of `Cc1noc(-c2ccc(NC(=O)Nc3cc(C(C)(C)C)on3)cc2)n1` [Compound P9], the Kd is under 100 nM.

As for `CC(C)(C)c1cc(NC(=O)Nc2ccc(NS(=O)(=O)c3ccccc3)cc2)no1` [Compound V1], the Kd is 1000 to 10000 nM.

As to `Cc1ccc(S(=O)(=O)Nc2ccc(NC(=O)Nc3cc(C(C)(C)C)on3)cc2)cc1` [Compound V2], the Kd fell in the range of 1000 to 10000 nM.

On to `CC(C)(C)c1cc(NC(=O)Nc2ccc(S(=O)(=O)Nc3ncccn3)cc2)no1` [Compound V3], for which the Kd was over 10000 nM.

Take `CC(=O)NS(=O)(=O)c1ccc(NC(=O)Nc2cc(C(C)(C)C)on2)cc1` [Compound V4]: the Kd was over 10000 nM.

Consider `Cc1ccc(NC(=O)Nc2cc(C(F)(F)F)cc(Cl)n2)cc1` [Compound W1], for which the Kd was in the range of 100 to 1000 nM.

Regarding `O=C(Nc1ccc(Cl)cc1)Nc1ccno1` [Compound Z15], the Kd lay in the range of 1000 to 10000 nM.

Turning to `CC(C)CCOC(=O)c1nnsc1NC(=O)Nc1ccc(Br)cc1` [Compound Z36], the Kd is over 10000 nM.

Turning to `Cc1c(NC(=O)Nc2cc(C(C)(C)C)on2)c(=O)n(-c2ccccc2)n1C` [Compound Z45], the Kd is over 10000 nM.

For the compound `Cn1c(SCC(=O)Nc2ccc(NC(=O)Nc3cc(C(C)(C)C)on3)cc2)nnc1-c1cccn(Cc2ccccc2)c1=O` [Compound Z47], the Kd fell in the range of 100 to 1000 nM.

Consider `O=C(Nc1ccc(Cl)cc1)Nc1ccc(-n2nc(Br)c(Br)c2Br)cc1` [Compound Z49], for which the Kd is under 100 nM.

With `C=C/C(=C\C=C\Cl)NC(=O)Nc1ccc(C(=O)OCCOC)cc1` [Compound Z54], the Kd fell in the range of 1000 to 10000 nM.

`NC(=O)c1c(NC(=O)Nc2ccc(Cl)c(Cl)c2)sc2c1CCCC2` [Compound Z56]: the Kd was over 10000 nM.

For the compound `Cc1sc(NC(=O)Nc2ccc(Cl)cc2)c(C(N)=O)c1C` [Compound Z58], the Kd was over 10000 nM.

`O=C(Nc1ccccc1)Nc1ccc(-n2cnc(Cl)c2Cl)cc1` [Compound Z65]: the Kd lay in the range of 100 to 1000 nM.

For `COc1ccc(NC(=O)Nc2cc(C(F)(F)F)cc(Cl)n2)cc1` [Compound Z71], the Kd is 100 to 1000 nM.

`O=C(Nc1ccc(Br)cc1)Nc1cc(C(F)(F)F)cc(Cl)n1` [Compound Z72]: the Kd was over 10000 nM.

Turning to `O=C(Nc1ccc(Cl)cc1)Nc1cc(C(F)(F)F)cc(Cl)n1` [Compound Z76], the Kd was over 10000 nM.

The same experiment, now with this note: read-out: Binding Assay: PDGFRB(DKIN); T7 phage displaying human PDGFR-β, DKIN construct.
With `CC(C)(C)c1cc(NC(=O)Nc2ccc(NC(=O)c3ncccc3O)cc2)no1` [Compound N134], the Kd was under 100 nM.

A further experiment deals with T2, PDGFRB(JMplus) (PDGFR-β) (Homo sapiens, UniProt P09619).
T2 construct: PDGFRB(JMplus)
T2 sequence (P09619 600-962 limits assumed): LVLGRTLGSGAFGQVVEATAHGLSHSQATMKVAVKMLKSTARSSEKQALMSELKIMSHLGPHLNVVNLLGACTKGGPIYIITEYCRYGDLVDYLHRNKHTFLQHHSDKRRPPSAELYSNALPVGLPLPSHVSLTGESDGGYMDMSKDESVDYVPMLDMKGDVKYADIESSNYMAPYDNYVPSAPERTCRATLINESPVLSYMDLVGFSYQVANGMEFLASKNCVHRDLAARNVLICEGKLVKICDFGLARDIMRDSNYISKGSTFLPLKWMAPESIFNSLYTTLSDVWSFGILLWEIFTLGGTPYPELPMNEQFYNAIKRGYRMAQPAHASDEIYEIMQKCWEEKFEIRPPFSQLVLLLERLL
Briefly: Phage-display competitive binding assay, PDGFRB(JMplus).
Conditions: not given
As to the method:
as §1
As to `CC(C)(C)c1cc(NC(=O)Nc2ccc(NC(=O)c3ncccc3O)cc2)no1` [Compound N134], the Kd was under 100 nM.

Still in this experiment, the particulars now being: T7 phage displaying human PDGFR-β, JMplus construct; read-out: Binding Assay: PDGFRB(JMplus).
As for `CC(C)(C)c1cc(NC(=O)Nc2ccc(NC(=O)c3ccccn3)cc2)no1` [Compound N188], the Kd was under 100 nM.

A further experiment deals with T3, PDGFRB(JMminus) (PDGFR-β) (Homo sapiens, UniProt P09619).
T3 construct: PDGFRB(JMminus)
T3 sequence (P09619 600-962 limits assumed): as above
Description: Phage-display competitive binding assay, PDGFRB(JMminus).
Conditions: not given
As to the method: as §1
For `CC(C)(C)c1cc(NC(=O)Nc2ccc(NC(=O)c3ncccc3O)cc2)no1` [Compound N134], the Kd was under 100 nM.

The experiment is the same for the next values; noted with them: T7 phage displaying human PDGFR-β, JMminus construct; read-out: Binding Assay: PDGFRB(JMminus).
Regarding `CC(C)(C)c1cc(NC(=O)Nc2ccc(NC(=O)c3ccccn3)cc2)no1` [Compound N188], the Kd was under 100 nM.
